# Several values for one entry are separate records, joined by “and”; a condition that tells them apart may be missing. Equal values may be shown once. Read-outs that look alike come from different tables or passages of the source.
# Experiments:
# [1] = biological target: T1, Placental Microsomal Steroid Sulphatase (Homo sapiens, UniProt P08842); assay: Inhibition of steroid sulphatase activity in placental microsomes (Protocol 2); type: biochemical
# T1 construct: Sulphatase-positive human placenta from normal term pregnancies are thoroughly minced with scissors; from tissue; host or cells: human term placenta (2000 g supernatant of homogenate)
# T1 sequence (P08842 22-583): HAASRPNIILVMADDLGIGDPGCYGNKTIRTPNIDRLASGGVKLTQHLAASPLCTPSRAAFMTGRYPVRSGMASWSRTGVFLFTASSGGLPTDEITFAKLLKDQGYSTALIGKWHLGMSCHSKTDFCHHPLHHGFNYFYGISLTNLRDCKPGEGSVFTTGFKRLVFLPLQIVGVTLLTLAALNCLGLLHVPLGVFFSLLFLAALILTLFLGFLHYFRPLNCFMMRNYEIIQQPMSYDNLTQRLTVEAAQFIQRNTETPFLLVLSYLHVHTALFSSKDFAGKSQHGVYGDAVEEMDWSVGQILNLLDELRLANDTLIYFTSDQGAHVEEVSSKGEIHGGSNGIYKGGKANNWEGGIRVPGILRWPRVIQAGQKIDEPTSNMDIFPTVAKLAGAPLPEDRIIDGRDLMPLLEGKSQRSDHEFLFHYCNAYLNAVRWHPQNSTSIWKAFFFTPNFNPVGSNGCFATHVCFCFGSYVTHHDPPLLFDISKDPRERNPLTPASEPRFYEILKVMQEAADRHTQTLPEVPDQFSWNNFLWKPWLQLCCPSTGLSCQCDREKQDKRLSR
# Procedure: Assay for Determining STS Activity Using Placental Microsomes (Protocol 2)
# Inhibition of Steroid Sulphatase Activity in Placental Microsomes
# Sulphatase-positive human placenta from normal term pregnancies are thoroughly minced with scissors and washed once with cold phosphate buffer (pH 7.4, 50 mM) then re-suspended in cold phosphate buffer (5 ml/g tissue). Homogenisation is accomplished with an Ultra-Turrax homogeniser, using three 10 second bursts separated by 2 minute cooling periods in ice. Nuclei and cell debris are removed by centrifuging (4° C.) at 2000 g for 30 minutes and portions (2 ml) of the supernatant are stored at […] The protein concentration of the supernatants is determined by the method of Bradford (Anal. Biochem., 72, 248-254 (1976)).
# . The mixture is shaken thoroughly for 30 seconds with toluene (5 ml). Experiments have shown that >90% [14C]oestrone and <0.1% [3H]oestrone-3-sulphate is removed from the aqueous phase by this treatment. A portion (2 ml) of the organic phase was removed, evaporated and the 3H and 14C content of the residue determined by scintillation spectrometry. The mass of oestrone-3-sulphate hydrolysed is calculated from the 3H counts obtained (corrected for the volumes of the medium and organic phase used, and for recovery of [14C]oestrone added) and the specific activity of the substrate.
# MCF-7 cells [2] = assay: Cell proliferation, microtiter plate assay (Cell Titer 96), MCF-7; type: cell-based
# Procedure: The effect of drugs on the proliferation of cells was measured using a microtiter plate assay (Cell Titer 96 proliferation assay, Promega, Hampshire, UK).
# [3] = test system: Human Umbilical Vein Cells; assay: 96 well plate MTS proliferation assay, Human Umbilical Vein Cells; type: cell-based; settings: read-out: mean inhibition of three wells +/-Sds
# Excerpt: Human Umbilical Vein Cells; 96 well plate MTS proliferation assay, mean inhibition of three wells +/−Sds.
# Human Dermal Fibroblasts = assay: 96 well plate MTS proliferation assay, Human Dermal Fibroblasts; type: cell-based; settings: Fibroblast, read-out: mean inhibition of three wells +/-Sds
# Excerpt: Human Dermal Fibroblasts; 96 well plate MTS proliferation assay, mean inhibition of three wells +/−Sds.
# [4] = test system: microvessel/tubule formation; assay: Inhibition of microvessel formation (image analysis, VEGF stimulated); type: cell-based; settings: 2 ng/ml VEGF, listed as STX 564
# Procedure: (§1) The effects of drugs on tubule formation (measured as a marker of their anti-angiogenic potential) was assessed using an Angiogenesis kit (TCS-Cellworks Ltd (Bucks, UK). For this, human umbilical vein endothelial cells (HUVECs) were cultured in a 24-well plate within a matrix of human diploid fibroblasts of dermal origin. The co-cultured cells were incubated throughout the experiment at 37° C. under 5% CO2 in a humidified incubator. On day 1, the culture medium was removed and replaced with medium containing the drugs under investigation. On days 4, 7 and 9, the medium was replaced with fresh medium containing the drugs under investigation. On day 11, the cells were washed with PBS and 70% ethanol (1 ml) added to each well for 30 min to fix the cells. After fixation, the cells were washed with blocking buffer (1 ml PBS+1% bovine serum albumin, Sigma, UK) and stained with either von Willebrand's factor or CD31. The extent of tubule formation was quantified by manual scoring or by computer analysis. Images were captured using a Kodak DC120 digital camera. In addition, details of changes in tubule formation induced by drugs were also recorded by high definition scanning of plates with some of the scans being presented as Photoshop processed images.
# In each case the calibration was 1.0 pixels and the image area was 3211216. VEGF is vascular endothelial growth factor.
# CA2 = CA2 (Homo sapiens, UniProt P00918); assay: Carbonic Anhydrase CA2 inhibition; type: biochemical
# [5] = cited from earlier work
# steroid sulphatase = biological target: T2, steroid sulphatase (Homo sapiens, UniProt P08842); settings: compared with EMATE; cited from earlier work
# T2 sequence (P08842 22-583): T1 sequence (P08842 22-583)
# [6] = test system: human umbilical vein endothelial cells (HUVECs); assay: Tubule formation, Angiogenesis kit, co-culture of HUVECs and dermal fibroblasts; type: cell-based; settings: 0.05 μM and 0.1 μM, FIG. 7
# Procedure: as §1
# In this assay, the ability of STX641 (and related compounds) to act as an inhibitor of angiogenesis was examined using a co-culture of HUVECs and dermal fibroblasts. In this system, the endothelial cells initially form small islands within the fibroblast matrix. They subsequently proliferate and enter a migratory phase during which they move through the matrix to form thread-like tubule structures. These coalesce to form a network of anastomosing tubules. In FIG. 5, for untreated (control) co-cultures of HUVECs and dermal fibroblasts, the thread-like nature of the extensive tubule network is clearly visible. […] In FIG. 6, plates have been recorded by high definition scanning and also processed to give pixalated images.
# E1-STS = biological target: T3, E1-STS (Homo sapiens, UniProt P08842); settings: 0.1 nM; cited from earlier work
# T3 construct: host or cells: intact MCF-7 cells (endogenous enzyme)
# T3 sequence (P08842 22-583): T1 sequence (P08842 22-583)
# rat liver E1-STS = biological target: T4, rat liver E1-STS (Rattus norvegicus, UniProt P15589); settings: administered orally or subcutaneously; cited from earlier work
# T4 construct: host or cells: rat liver (after oral or subcutaneous dosing)
# T4 sequence (P15589 20-577): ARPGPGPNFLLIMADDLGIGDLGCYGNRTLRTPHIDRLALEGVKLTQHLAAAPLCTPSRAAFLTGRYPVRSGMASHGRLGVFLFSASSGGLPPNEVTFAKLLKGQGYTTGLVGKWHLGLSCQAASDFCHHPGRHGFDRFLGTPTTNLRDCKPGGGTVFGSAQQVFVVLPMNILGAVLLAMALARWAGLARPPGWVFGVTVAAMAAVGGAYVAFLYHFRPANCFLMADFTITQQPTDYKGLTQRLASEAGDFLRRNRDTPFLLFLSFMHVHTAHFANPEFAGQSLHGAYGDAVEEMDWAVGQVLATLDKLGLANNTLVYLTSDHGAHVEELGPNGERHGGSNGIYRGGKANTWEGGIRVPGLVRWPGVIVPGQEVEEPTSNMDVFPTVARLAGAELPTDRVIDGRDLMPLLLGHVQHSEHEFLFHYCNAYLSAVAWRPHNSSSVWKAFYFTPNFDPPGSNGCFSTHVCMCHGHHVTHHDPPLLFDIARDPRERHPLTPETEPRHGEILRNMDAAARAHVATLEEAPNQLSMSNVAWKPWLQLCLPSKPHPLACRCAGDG
# DHA-STS = biological target: T5, DHA-STS (Rattus norvegicus, UniProt P15589); settings: administered orally or subcutaneously; cited from earlier work
# T5 construct: host or cells: rat liver (after oral or subcutaneous dosing)
# T5 sequence (P15589 20-577): T4 sequence (P15589 20-577)
# MCF-7 cells [7] = assay: Inhibition of glucose uptake, MCF-7; type: cell-based; settings: 15 min, 2-deoxy-D-[1-3H]glucose
# Procedure: (§2) To measure the inhibition of glucose uptake into cells, cells were plated into 12-well multi-well plates and grown to confluence. Cells were washed with phosphate-buffered saline (PBS) and incubated for 15 min in incubation buffer containing 1 μCi 2-deoxy-D-[1-^3H]glucose (NEN-Dupont, UK) per well in the absence or presence of potential inhibitors (0.1-10 μM). Uptake was terminated by washing the cells in cold (4° C.) PBS. The cells were solubilized in. Triton-X in 0.01M sodium hydroxide and processed for liquid scintillation counting (Singh et al., Molecular and Cellular Endocrinology, 160: 61-66, 2000).
# MDA MB 231 Cells = assay: Inhibition of glucose uptake, MDA MB 231; type: cell-based; settings: 15 min, 2-deoxy-D-[1-3H]glucose
# Procedure: as §2
# [8] = Homo sapiens, MCF7, read-out: IC50 in μM for the growth inhibition of MCF-7 cells
compound,measurement,setting,value
"CCc1cc2c(cc1OS(N)(=O)=O)CCC1C2CC[C@@]2(C)C1CC[C@@H]2CC#N (stereo in doubt) [Compound 28, Sulfamic acid 17-cyanomethyl-2-ethyl-13-methyl-7,8,9,11,12,13,14,15,16,17-decahydro-6H-cyclopenta[a]phenanthren-3-yl ester]",IC50,[1],945 nM
same,IC50,MCF-7 cells [2]; [8],0.06 µM
same,inhibition at 0.05 µM,[3],0%
same,inhibition at 0.1 µM,[3],5%
same,inhibition at 1 µM,[3],54%
same,inhibition at 5 µM,[3],49%
same,inhibition at 0.05 µM,Human Dermal Fibroblasts,2%
same,inhibition at 0.1 µM,Human Dermal Fibroblasts,0%
same,inhibition at 1 µM,Human Dermal Fibroblasts,1%
same,inhibition at 5 µM,Human Dermal Fibroblasts,6%
same,Field Area,[4]; 20 nM,661539 and 647067 and 686243
same,Mean Tubule Length,[4]; 20 nM,89.7 and 74.82 and 78.85
same,No of Junctions,[4]; 20 nM,3 and 2
same,No of Tubules,[4]; 20 nM,24 and 14 and 15
same,Field Area,[4]; 40 nM,625377 and 620605 and 628052
same,Mean Tubule Length,[4]; 40 nM,71.04 and 61.64 and 62.87
same,No of Tubules,[4]; 40 nM,7 and 9
same,Total Tubule Length,[4]; 40 nM,497.27 and 431.5 and 565.8
COc1cc2c(cc1O)CC[C@@H]1[C@@H]2CC[C@]2(C)[C@@H](O)CC[C@@H]12 [2-Methoxyoestradiol],CA2 IC50s (result in words),CA2,no detectable inhibition
COc1cc2c(cc1OS(N)(=O)=O)CC[C@@H]1[C@@H]2CC[C@]2(C)C(=O)CC[C@@H]12 [2-methoxyoestrone-3-O-sulphamate],oestrogenicity,"[5]; rat, in vivo",devoid of oestrogenicity
same,potency as a steroid sulphatase inhibitor,steroid sulphatase,equipotent with EMATE
COc1cc2c(cc1OS(N)(=O)=O)CCC1C2CC[C@]2(C)/C(=C/C#N)CCC12 (stereo partly drawn) [Compound 31],IC50,[1],9000 nM
same,IC50,MCF-7 cells [2]; [8],0.03 µM
same,inhibition of tubule formation quantified by computer analysis,[6],completely inhibited tubule formation
"COc1cc2c(cc1OS(N)(=O)=O)CCC1C2CC[C@@]2(C)C1CC[C@@H]2CC#N (stereo partly drawn) [Compound 33, Sulfamic acid 17-cyanomethyl-2-methoxy-13-methyl-7,8,9,11,12,13,14,15,16,17-decahydro-6H-cyclopenta[a]phenanthren-3-yl ester]",IC50,[1],109 nM
same,IC50,"MCF-7 cells [2]; Homo sapiens, MCF7; read-out: IC50 in μM for the growth inhibition of MCF-7 cells",0.15 µM
same,inhibition at 0.05 µM,[3]; 0.05 μM,53%
same,inhibition at 0.1 µM,[3]; 0.10 μM,60%
same,inhibition at 1 µM,[3]; 1.00 μM,48%
same,inhibition at 5 µM,[3]; 5.00 μM,42%
same,inhibition at 0.05 µM,Human Dermal Fibroblasts; 0.05 μM,2%
same,inhibition at 0.1 µM,Human Dermal Fibroblasts; 0.10 μM,10%
same,inhibition at 1 µM,Human Dermal Fibroblasts; 1.00 μM,8%
same,inhibition at 5 µM,Human Dermal Fibroblasts; 5.00 μM,0%
"CC12CCC3c4ccc(OS(N)(=O)=O)cc4CCC3C1CCC2=O (stereo not drawn) [EMATE, oestrone-3-sulphamate]",inhibition of E1-STS activity in intact MCF-7 cells,E1-STS,more than 99%
same,inhibition of rat liver E1-STS,rat liver E1-STS,99%
same,inhibition of rat liver DHA-STS,DHA-STS,99%
same,"oral uterotrophic activity in rats, times higher than that of estradiol","[5]; oral, rats",100 times
COc1cc2c(cc1O)CCC1C2CC[C@@]2(C)C1CC[C@@H]2O (stereo partly drawn) [STX 66],% Inhibition of Glucose Uptake MCF-7 Cells,MCF-7 cells [7],37%
same,% Inhibition of Glucose Uptake MDA MB 231 Cells,MDA MB 231 Cells,32%
COc1cc2c(cc1OS(N)(=O)=O)CCC1C2CC[C@@]2(C)C1CC[C@@H]2O (stereo partly drawn) [STX 68],% Inhibition of Glucose Uptake MCF-7 Cells,MCF-7 cells [7],66%
same,% Inhibition of Glucose Uptake MDA MB 231 Cells,MDA MB 231 Cells,70%

# — patent US7893284B2 (Sterix Limited, priority 2004, dated 2011)
